Earlier results in patent publication US20060120971A1, “Agents and methods for administration to the central nervous system” (SIGNUM PHARMACEUTICALS, INC., priority 2004, published 2006).

Molecular target: T1, carnitine palmitoyltransferase-1 (CPT1) (Rattus norvegicus, UniProt P32198)
T1 construct: decrease levels of CPT1 activity and increase the levels of LC-CoAs in the hypothalamus of healthy rats; host or cells: endogenous enzyme in brain/hypothalamus of conscious Sprague-Dawley rats (in vivo, ICV infusion)
T1 sequence (P32198 1-773): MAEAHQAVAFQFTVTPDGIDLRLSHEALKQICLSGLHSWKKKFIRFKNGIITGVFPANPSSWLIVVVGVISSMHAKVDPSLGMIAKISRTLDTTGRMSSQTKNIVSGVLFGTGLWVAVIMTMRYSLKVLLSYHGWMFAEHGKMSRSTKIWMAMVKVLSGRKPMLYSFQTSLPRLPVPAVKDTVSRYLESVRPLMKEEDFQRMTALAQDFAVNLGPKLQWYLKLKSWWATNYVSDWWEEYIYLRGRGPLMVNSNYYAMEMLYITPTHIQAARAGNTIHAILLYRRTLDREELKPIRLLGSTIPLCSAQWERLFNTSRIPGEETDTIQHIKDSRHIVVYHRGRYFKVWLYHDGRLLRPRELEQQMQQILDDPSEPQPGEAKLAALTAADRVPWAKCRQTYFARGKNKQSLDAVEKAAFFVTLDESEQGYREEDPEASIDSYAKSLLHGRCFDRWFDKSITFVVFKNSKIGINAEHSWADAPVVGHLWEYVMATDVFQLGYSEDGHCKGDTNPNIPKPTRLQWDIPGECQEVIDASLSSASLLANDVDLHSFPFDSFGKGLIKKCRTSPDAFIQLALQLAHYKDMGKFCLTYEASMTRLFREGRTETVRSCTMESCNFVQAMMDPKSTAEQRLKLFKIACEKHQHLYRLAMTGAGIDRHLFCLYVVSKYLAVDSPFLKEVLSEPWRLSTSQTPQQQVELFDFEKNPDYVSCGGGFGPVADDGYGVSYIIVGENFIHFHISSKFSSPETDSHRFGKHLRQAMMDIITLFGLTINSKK

[1] = healthy conscious Sprague-Dawley rats, continuous ICV infusion into third cerebral ventricle

CPT1 activity (brain of healthy rats, ICV infusion): effectively decreasing
endogenous glucose production [1]: reduced
food intake [1]: diminished
hypothalamic concentrations of LC-CoA (hypothalamus of healthy rats, ICV infusion): substantially increasing
Structure (SMILES): CCCCCCCCCCCCCCNC(=O)N[C@H](CC(=O)[O-])C[N+](C)(C)C [ST1326, R-4-trimethylammonium-3-(tetradecylcarbamoyl)-aminobutyrate]
